Source: ChEMBL document CHEMBL1132787, “Novel heterocycles as selective alpha1-adrenergic receptor antagonists” (Bioorg Med Chem Lett, 2000)

Key:
[1] = biological target: T1, Alpha-1B adrenergic receptor (Homo sapiens, UniProt P35368); test: Compound was evaluated for its binding affinity towards COS cell membrane expressing the human Alpha-1B adrenergic receptor; format: cell membranes
T1 sequence (P35368 whole entry): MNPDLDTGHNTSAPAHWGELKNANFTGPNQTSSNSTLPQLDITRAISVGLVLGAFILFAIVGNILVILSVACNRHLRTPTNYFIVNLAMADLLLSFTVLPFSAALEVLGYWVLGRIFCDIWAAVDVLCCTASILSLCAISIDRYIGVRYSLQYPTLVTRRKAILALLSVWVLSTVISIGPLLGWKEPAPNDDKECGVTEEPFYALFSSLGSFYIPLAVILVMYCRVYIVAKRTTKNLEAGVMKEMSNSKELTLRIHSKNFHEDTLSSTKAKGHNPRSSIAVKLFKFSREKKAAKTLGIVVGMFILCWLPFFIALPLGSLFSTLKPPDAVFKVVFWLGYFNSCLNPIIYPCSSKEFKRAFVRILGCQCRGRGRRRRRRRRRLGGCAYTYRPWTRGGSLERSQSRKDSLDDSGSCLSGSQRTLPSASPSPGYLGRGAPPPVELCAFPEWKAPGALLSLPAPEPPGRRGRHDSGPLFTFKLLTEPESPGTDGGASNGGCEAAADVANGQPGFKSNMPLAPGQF

[2] = biological target: Adrenergic receptors; alpha-1 A & B (Homo sapiens) (UniProt P35348+P35368); test: Ratio of binding affinity of compound to human adrenergic receptor alpha-1b to that of human adrenergic receptor alpha-1a; format: protein assay
[3] = biological target: T2, Alpha-1D adrenergic receptor (Homo sapiens, UniProt P25100); test: Compound was evaluated for its binding affinity to COS cell membrane expressing the human Alpha-1D adrenergic receptor; format: cell membranes
T2 sequence (P25100 whole entry): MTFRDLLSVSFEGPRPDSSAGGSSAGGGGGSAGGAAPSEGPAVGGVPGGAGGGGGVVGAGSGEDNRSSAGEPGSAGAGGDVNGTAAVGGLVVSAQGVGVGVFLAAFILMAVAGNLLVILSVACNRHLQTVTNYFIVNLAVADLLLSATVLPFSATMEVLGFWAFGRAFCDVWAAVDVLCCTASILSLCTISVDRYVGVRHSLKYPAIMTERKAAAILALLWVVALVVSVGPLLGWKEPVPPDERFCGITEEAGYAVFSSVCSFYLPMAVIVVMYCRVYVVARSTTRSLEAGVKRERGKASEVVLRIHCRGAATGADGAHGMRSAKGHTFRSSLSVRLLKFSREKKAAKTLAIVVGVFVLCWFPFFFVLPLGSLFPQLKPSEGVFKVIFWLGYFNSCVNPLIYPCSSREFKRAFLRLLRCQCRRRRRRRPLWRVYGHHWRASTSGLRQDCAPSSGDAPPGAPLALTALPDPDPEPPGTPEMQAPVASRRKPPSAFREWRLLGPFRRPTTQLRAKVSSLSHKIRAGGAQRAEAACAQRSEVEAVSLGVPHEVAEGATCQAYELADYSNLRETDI

[4] = biological target: T3, Alpha-1A adrenergic receptor (Homo sapiens, UniProt P35348); test: Compound was evaluated for its binding affinity to COS cell membrane expressing the human Alpha-1A adrenergic receptor; format: cell membranes
T3 sequence (P35348 whole entry): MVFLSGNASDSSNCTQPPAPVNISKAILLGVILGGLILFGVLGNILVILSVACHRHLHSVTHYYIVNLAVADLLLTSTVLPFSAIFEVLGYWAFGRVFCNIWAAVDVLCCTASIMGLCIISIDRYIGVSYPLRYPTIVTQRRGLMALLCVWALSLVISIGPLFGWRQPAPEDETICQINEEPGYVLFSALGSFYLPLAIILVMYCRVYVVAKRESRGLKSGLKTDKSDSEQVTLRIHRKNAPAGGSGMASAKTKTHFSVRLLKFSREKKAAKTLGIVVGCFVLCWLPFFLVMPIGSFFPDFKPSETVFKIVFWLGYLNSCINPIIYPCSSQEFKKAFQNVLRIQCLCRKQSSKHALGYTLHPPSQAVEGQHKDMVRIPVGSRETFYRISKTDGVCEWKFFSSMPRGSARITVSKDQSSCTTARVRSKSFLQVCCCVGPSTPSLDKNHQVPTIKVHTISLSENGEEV

[5] = biological target: Alpha adrenergic receptor (1a and 1d) (Homo sapiens) (UniProt P35348+P25100); test: Ratio of binding affinity of compound to human adrenergic receptor alpha-1d to that of human adrenergic receptor alpha-1a; format: protein assay

Row | Ki [1] | Ratio [2] | Ki [3] | Ki [4] | Ratio [5] | SMILES
1 | 2770 nM | 308 | 44 nM | 9 nM | 5 | CC(C)Oc1ccccc1N1CCN(Cc2cc(CN3CCCCC3=O)nn2C)CC1
2 | > 10000 nM | > 127 | > 10000 nM | 79 nM | > 127 | CC(C)Oc1ccccc1N1CCN(Cc2cc(CN3CCCCC3=O)nc(N)n2)CC1
3 | 3080 nM | 832 | 52 nM | 3.7 nM | 14 | CC(C)Oc1ccccc1N1CCN(Cc2cc(CN3CCCCC3=O)n(C)n2)CC1
4 | 3920 nM | 1860 | 177 nM | 2.1 nM | 84 | CC(C)Oc1ccccc1N1CCN(Cc2cc(CN3CCCCC3=O)n[nH]2)CC1
5 | > 10000 nM | > 112 | 1520 nM | 89 nM | 17 | CC(C)Oc1ccccc1N1CCN(CC2=NOC(CN3CCCCC3=O)C2)CC1 (stereo not given)
6 | 4460 nM | 1170 | 272 nM | 3.8 nM | 72 | CC(C)Oc1ccccc1N1CCN(Cc2cc(CN3CCCCC3=O)on2)CC1
